We go through 21 compounds from patent US20040142821A1, “Pesticide composition comprising malononitrile compounds” (priority 2001, published 2004).

In data set [1] the test system is Diabrotica undecimpunctata. In words: Pesticidal test against Diabrotica undecimpunctata, treated filter paper (Test Example 4). It counts as in vivo, Diabrotica undecimpunctata (southern-corn rootworm). The conditions noted are these: 50 ppm test liquid (Formulation Example 1), 1 ml on filter paper; 30 to 50 eggs and one germinated corn seed; 25° C. How it is done: One germinated seed of corn and 30 to 50 eggs of Diabrotica undecimpunctata (southern-corn rootworm) was placed on the filter paper in the polyethylene cup, which was then kept covered and left in a room at 25° C. On the 6th day after, the number of surviving larvae of Diabrotica undecimpunctata was examined.

The subject of data set [2] is German cockroach. Kind of data set: Pesticidal test against German cockroach, treated filter paper with sucrose bait (Test Example 6). The conditions noted are these: Blattella germanica, 144 h; 500 ppm test liquid (Formulation Example 5), 0.7 ml on filter paper; two male adults; after 6 days. It counts as in vivo. An excerpt: Two male adults of German cockroach (Blattalla germanica) were set free in the polyethylene cup, which was then kept covered. After 6 days, their survival was examined to determine the mortality.

In data set [3] the test system is Cullex pipiens pallens. Kind of data set: whole plant or invertebrate. The following applies: 24 h.
Method: In 100 ml of ion-exchanged water, the test liquid had been prepared as described above, was added dropwise in an amount of 0.7 ml (the concentration of active ingredient was 3.5 ppm). Twenty final-instar larvae of Cullex pipiens pallens (common mosquito) were set free in the solution. After 1 days, their survival was examined to determine the mortality.
The subject of data set [4] is Musca domestics. Kind of data set: Pesticidal test against Musca domestics, treated filter paper with sucrose bait (Test Example 5). It counts as in vivo. The following applies: 500 ppm test liquid (Formulation Example 5), 0.7 ml on filter paper, ten female adults, after 24 hours. The protocol: Ten female adults of Musca domestics (house fly) were set free in the polyethylene cup, which was then kept covered. After 24 hours, their survival was examined to determine the mortality.

For orientation: melting point means the temperature of the solid-liquid transition. `CCC(C#N)(C#N)Cc1ccc(Cl)cc1`: the melting point was 70.9 °C.

In general, mortality refers to the share of the test organisms that died. `C=CCC(C#N)(C#N)Cc1ccc(Cl)cc1` [Compound 1, 2-allyl-2-(4-chlorobenzyl)malononitrile]: the “number of surviving pests on the 6th day after” value (from here on “number of surviving pests”) in data set [1] was determined as 0. The mortality at 500 ppm in data set [2] and in data set [4] was 100% in each case. Moreover, the mortality at 3.5 µg/mL in data set [3] stood at 100%.

On to `C=CCC(C#N)(C#N)C(C)(C)c1ccc(Cl)cc1` [Compound 2, 2-allyl-2-(1-(4-chlorophenyl)-1-methylethyl)malononitrile], for which the “number of surviving pests” value in data set [1] is listed as 0. For the same compound, in data set [2], the mortality at 500 ppm is 100%. Besides, in data set [3], the mortality at 3.5 µg/mL stood at 100%.

In the case of `C=CCC(C#N)(C#N)C(c1ccc(Cl)cc1)C(C)C` (centres unmarked) [Compound 3, 2-allyl-2-(1-(4-chlorophenyl)-2-methylpropyl)malononitrile], in data set [1], the “number of surviving pests” value was 0. For the same compound, the mortality at 500 ppm in data set [2] and in data set [4] was 100% throughout. The same compound displayed a mortality at 3.5 µg/mL in data set [3] of 100%.

Take `C=CCCC(C#N)(C#N)Cc1ccc(Cl)cc1` [Compound 4, 2-(3-butenyl)-2-(4-chlorobenzyl)malononitrile]: the “number of surviving pests” value in data set [1] is recorded as 0. For the same compound, the mortality at 500 ppm in data set [2] and in data set [4] was 100% throughout. The mortality at 3.5 µg/mL in data set [3] was 100%.

As for `C=CCC(C#N)(C#N)Cc1ccc(C(F)(F)F)cc1` [Compound 5, 2-allyl-2-(4-(trifluoromethyl)benzyl)malononitrile], in data set [1], the “number of surviving pests” value is given as 0. In data set [2], this compound gave a mortality at 500 ppm of 100%. The compound also showed a mortality at 3.5 µg/mL in data set [3] of 100%.

On to `N#CC(C#N)(Cc1ccc(Cl)cc1)C1CCCCC1` [Compound 9, 2-(4-chlorobenzyl)-2-cyclohexylmalononitrile], for which the “number of surviving pests” value in data set [1] is reported as 0. Further, the mortality at 500 ppm in data set [2] came to 100%. The mortality at 3.5 µg/mL in data set [3] was found to be 100%.

Turning to `C=CCCC(C#N)(C#N)C(C)c1ccc(Cl)cc1` (centres unmarked) [Compound 10, 2-(3-butenyl)-2-(1-(4-chlorophenyl)ethyl)malononitrile], in data set [1], the “number of surviving pests” value came to 0. Besides, the mortality at 500 ppm in data set [2] and in data set [4] was 100% in each case. This compound also returned a mortality at 3.5 µg/mL in data set [3] of 100%.

With `C=CCC(C#N)(C#N)Cc1ccc(OC(F)(F)F)cc1` [Compound 11, 2-allyl-2-(4-(trifluoromethoxy)benzyl)malononitrile], the “number of surviving pests” value in data set [1] amounted to 0. In addition, the mortality at 500 ppm in data set [2] and in data set [4] was 100% each time. The same compound registered a mortality at 3.5 µg/mL in data set [3] of 100%.

`C=CCC(C#N)(C#N)Cc1ccc(C#N)cc1` [Compound 14, 2-allyl-2-(4-cyanobenzyl)malononitrile] showed a melting point of 81.9 °C.

On to `C=CCCC(C#N)(C#N)C(C)c1ccc(OC(F)(F)F)cc1` (centres unmarked) [Compound 16, 2-(3-butenyl)-2-(1-(4-(trifluoromethoxy)phenyl)ethyl)malononitrile], for which the “number of surviving pests” value in data set [1] was 0. In data set [2], this compound yielded a mortality at 500 ppm of 100%. Moreover, in data set [3], the mortality at 3.5 µg/mL was determined as 100%.

In the case of `C=CC(C)C(C#N)(C#N)Cc1ccc(Cl)cc1` (centres unmarked) [Compound 22, 2-(4-chlorobenzyl)-2-(1-methyl-2-propenyl)malononitrile], the “number of surviving pests” value in data set [1] turned out to be 0. The compound further gave a mortality at 3.5 µg/mL in data set [3] of 100%. In data set [4], the mortality at 500 ppm was determined as 100%.

For `C=CCC(C#N)(C#N)Cc1ccc(Cl)c(Cl)c1` [Compound 23, 2-allyl-2-(3,4-dichlorobenzyl)malononitrile], in data set [1], the “number of surviving pests” value is recorded as 0. In data set [2], this compound showed a mortality at 500 ppm of 100%. The mortality at 3.5 µg/mL in data set [3] was 100%.

For the compound `C=CCC(C#N)(C#N)Cc1ccc(Cl)cc1Cl` [Compound 24, 2-allyl-2-(2,4-dichlorobenzyl)malononitrile], in data set [1], the “number of surviving pests” value came to 0. In data set [3], the mortality at 3.5 µg/mL worked out at 100%. For the same compound, in data set [4], the mortality at 500 ppm came to 100%.

Turning to `C=CCC(C#N)(C#N)Cc1ccc([N+](=O)[O-])cc1` [Compound 50, 2-allyl-2-(4-nitrobenzyl)malononitrile], the melting point was found to be 94.2 °C.

`C=CCC(C#N)(C#N)Cc1c(F)c(F)c(F)c(F)c1F` [Compound 62, 2-allyl-2-(2,3,4,5,6-pentafluorobenzyl)malononitrile] showed a melting point of 78.2 °C.

`C=CCC(C#N)(C#N)C(c1cccc(Cl)c1)C(C)C` (centres unmarked) [Compound 66, 2-allyl-2-(1-(3-chlorophenyl)-2-methylpropyl)malononitrile]: the “number of surviving pests” value in data set [1] worked out at 0. The mortality at 3.5 µg/mL in data set [3] is 100%. Besides, the mortality at 500 ppm in data set [4] was 100%.

For `CC/C=C\CCC(C#N)(C#N)Cc1ccc(Cl)cc1` [Compound 73, 2-(4-chlorobenzyl)-2-((Z)-3-hexenyl)malononitrile], the melting point came to 44.8 °C.

On to `C=CCC(C#N)(C#N)C(C)c1ccc(Cl)cc1` (centres unmarked) [Compound 74, 2-allyl-2-(1-(4-chlorophenyl)ethyl)malononitrile], for which the “number of surviving pests” value in data set [1] came out at 0. Also, the mortality at 500 ppm in data set [2] and in data set [4] was 100% each time. Further, the mortality at 3.5 µg/mL in data set [3] is 100%.

On to `C=CCCCC(C#N)(C#N)C(C)c1ccc(Cl)cc1` (centres unmarked) [Compound 76, 2-(1-(4-chlorophenyl)ethyl)-2-(4-pentenyl)malononitrile], for which the “number of surviving pests” value in data set [1] came out at 0. Besides, the mortality at 3.5 µg/mL in data set [3] was determined as 100%.

As for `C=CCC(C#N)(C#N)Cc1ccc(C)cc1` [Compound 77, 2-allyl-2-(4-methylbenzyl)malononitrile], the melting point was determined as 74.5 °C.
